Test results from article PMC9820430, “New Affordable Methods for Large-Scale Isolation of Major Olive Secoiridoids and Systematic Comparative Study of Their Antiproliferative/Cytotoxic Effect on Multiple Cancer Cell Lines of Different Cancer Origins” (International Journal of Molecular Sciences, 2022).

Experiments:
[1] = system: MDA-MB 231; test: ATP assay under 1% (v/v) O2 versus 20% (v/v) O2, 72 h; format: cell-based, human; conditions: 1% (v/v) O2 vs 20% (v/v) O2
Experimental: The effects of drugs on cancer cell lines are usually tested under atmospheric conditions (20% (v/v) O2). However, the O2 content in tissues (normoxia) and solid tumors (hypoxia) is ≤ 5% (v/v). In some tumors (i.e., pancreatic tumors) the % O2 is even ≤ 1% (v/v). This affects cell metabolism and signaling pathways which depend on the hypoxia-induced Factor 1A (HIF1A) and it could affect the activity of certain drugs. […] The effects of these three OOPs were tested on the MDA-MB 231, SK-BR-3 and MCF-7 breast cancer and on the AGS stomach cancer cell lines.
Figure 6 Effect of O2 concentration on the antiproliferative/cytotoxic effect of OOPs. […] Cell viability was determined on (A) AGS, (B) MDA-MB 231, (C) MCF-7 and (D) SK-BR-3 cell lines using ATP-based luminescence assay. The results presented are from two independent experiments performed in triplicate. Bar graphs represent the mean cell count ± SE in each treatment group normalized to the control group (i.e., cells treated only with 0.2% (v/v) DMSO). * p < 0.05; ** p ≤ 0.01; *** p ≤ 0.001 (t-test) comparing the two different conditions.

[2] = system: SK-BR-3 cells; test: Deactivation in culture medium (direct addition vs pre-incubation), ATP assay 48 h; format: cell-based, human; conditions: 20 and 40 μM, 15 min pre-incubation in culture medium vs direct addition
Experimental: The other OOPs tested were not affected similarly (Figure S3B). […] It was therefore decided for all the experiments presented in this manuscript and the assays performed to calculate the EC50 values to add all the OOPs tested directly to the culture medium.
Viable cell numbers were determined using the ATP-based luminescence assay after 48 h of treatment. The compound was added to the cells either directly or after incubation with the culture medium for 15 min. The results presented are from four independent experiments performed in triplicate. Bar graphs represent the mean cell count ± SE in each treatment group normalized to the control group (i.e., cells treated only with 0.2% (v/v) DMSO). * p < 0.05; ** p ≤ 0.01 (t-test) comparing the two different treatment methods.

[3] = system: Hela cells; conditions: cited from earlier work
[4] = system: Caco-2 cells; conditions: cited from earlier work
[5] = system: HaCaT cells; set-up: method as in PMID 27878290, PMID 35630786; conditions: cited from earlier work
[6] = system: MCF-7/TR (tamoxifen-resistant); set-up: method as in Mazzei et al. (2020) 27; conditions: ref Mazzei et al. (2020) 27; cited from earlier work

Compound	bioactivity under hypoxia versus atmospheric O2 [1]	sensitivity of cells to treatment [5]	further results
ligstroside aglycone [4a,b]	more resistant	–	–
C/C=C(/C=O)[C@@H](CC=O)CC(=O)OCCc1ccc(O)cc1 [compound 1, oleocanthal]	–	resistant	stability/deactivation in the cell culture medium [2]: partially deactivated; EC50 [3]: > 150 µM; EC50 [4]: > 150 µM
COC(=O)C1=COC(C)[C@@H](C=O)[C@@H]1CC(=O)OCCc1ccc(O)c(O)c1 (mixture of isomers) [3a,b, oleuropein aglycone]	more resistant	–	EC50 [6]: 70 µM
C/C=C(/C=O)[C@@H](CC=O)CC(=O)OCCc1ccc(O)c(O)c1 [compound 2, oleacein]	–	resistant	–
